Measured values reported in US20040138312A1, “Methods for the treatment of neurodegeneration” (priority 2002, published 2004).

Key:
Format in all cases: in vivo, C57B1/B6 type mice
MPTP-treated mice [1] = test: Open-Field test in MPTP-treated mice; conditions: for Open field activity compared with the vehicle group: 3 mg/kg/day s.c. osmotic mini-pump 14 days
Protocol: Each animal is placed in a clear plastic open field box with two rows of photo-beams mounted on the sides to distinguish be5tween horizontal (i.e. distance traveled) and vertical (i.e. “rears”) movements. Ambient conditions are low noise and dim lighting. The animal's movements within the box are measured for 5 minutes, and calculated from records of the number and type of “beam-breaks” or photo-beam crossings. On the last Open Field test, only rears are counted, and classified as either “supported” or “unsupported”. Supported rears are when an animal places at least one forelimb on the side wall of the box when a rear is recorded. In an unsupported rear the mouse is supported solely by hindlimbs. These rears are distinguished by videorecording. The number of unsupported rears is the most reliable measure of dopamine neuron loss in this test.
(§1) Mice that receive systemic injections of the pyridine toxin 1-methyl-4-phenyl-1,2,3,6-tetrahydropyridine (MPTP) selectively lose large numbers of dopaminergic neurons in the substantia nigra (SN) and the ventral tegmental area (VTA). Loss of dopamine cells in the SN mimics the clinical condition seen in Parkinson's disease. Loss of such cells in the VTA may contribute to the cognitive deficits seen in Parkinson's and Alzheimer's disease, due to these neurons' projections into the frontal cortex.
(§2) 50 C57B1/B6 type mice (8-12 weeks old) are allowed to acclimate for 12-14 days before experimental use. The mice are then randomly assigned to the following groups: MPTP plus DMSO vehicle; vehicle alone, MPTP plus brimonidine (3 mg/kg/day), MPTP plus AGN 197075 (3 mg/kg/day), and MPTP plus AGN 196923 (3 mg/kg/day)).
In the presently described assays, each mouse is then given an initial Open-Field test and a Tail Hanging test. […]
(§3) For all behavioral tests, the results are first analyzed using a repeated measures ANOVA, following by tests of the between groups effect using Fisher's HSD method.

MPTP-treated mice [2] = test: Tail Hanging test (forelimb placement) in MPTP-treated mice; conditions: during the period that the compound is administered; 3 mg/kg/day s.c. mini-pump
Text: Mice are hung by their tails 3 times each, for approximately 10 seconds each time. Each mouse is hung by the base of its tail about 30 cm above the surface of a table until the mouse turns either left or right. A left turn is given a score of 0 and a right turn is given a score of 1.
Forelimb placement is also noted during tail hanging. The placement of the limbs is given a score on a 4 point scale. Extended limbs, or those placed above the head are given a score of 0. Limbs which are clasped or held against the body are given a score of 3. Scores of 1 or 2 are assigned for relative stages between the two extremes. Hindlimb placement is also scored as below.
as §1, §2
In the presently described assays, each mouse is then given an initial Open-Field test and a Tail Hanging test. The Open Field test is the most frequently used behavioral assay of MPTP-treated mice, and appears to be sensitive to loss of dopaminergic input from the substantia nigra. The Tail-Hanging test is sensitive to direct striatal damage; the Nest Building test is sensitive to loss of striatal input from the frontal cortex. […]
as §3

[3] = tested on: dopaminergic neurons in the substantia nigra (SN); test: Neuron counting (tyrosine hydroxylase-labeled cells) in substantia nigra of MPTP-treated mice; conditions: for Neuron loss in the substantia nigra versus MPTP-treated animals: 3 mg/kg/day s.c. mini-pump 14 days, 55-60 days post MPTP; for Average Neuron Count (statistical error): substantia nigra, 3 mg/kg/day s.c. mini-pump 14 days + MPTP 40 mg/kg s.c., Control 60, Vehicle + MPTP 25
Text: (§4) Between 55 and 60 day post MPTP injection, the mice are sacrificed using sodium nembutol. Mouse brains are perfused with phosphate buffered saline followed by Lana's fixative (paraformaldehyde and picric acid). The brains are removed and placed in Lana's fixative for 7 to 10 days. The brains are then sectioned coronally at 50 micrometers using a vibratome. And the sections stained with an antibody to tyrosine hydoxylase, the rate limiting enzyme in dopamine synthesis. The section was then examined under microscope at 100× magnification. Tissue slices (−2.9 mm and −3.6 mm posterior to Bregma were selected for cell counting in the SN and VTA. These sections are at the midpoint of the rostral half and the midpoint of the cauldual half of SN, respectively. Each TH-labeled cell that is clearly visible that has between 2 and 6 neurites is considered a neuron. An overall average count for each animal is calculated from the four sections (rostral and caudal, left and right). An average is obtained for the four sections. Separate analyses are performed on the neuron counts from SN and VTA. These counts are analyzed using a repeated measures ANOVA, following by tests of the between groups effect using Fisher's HSD method.
as §1, §2
Four out of the 5 groups of mice receive an infusion of a test compound (or of vehicle containing no compound). These infusions are administered via subcutaneous implanted osmotic mini-pump over a 14 day period at a flow of 0.25 microliters/hour. Three days following implantation of the pumps, the mice are given the Open Field and Tail Hanging tests, along with the group of control mice, who are not implanted with mini-pumps. Immediately following the tests, the pump containing mice were given a 40 mg/kg injection of MPTP subcutaneously. All groups are then given the Open Field and Tail Hanging tests at 10-12 days and 30-40 days following MPTP treatment. The Open Field, and Tail Hanging tests are given at 50-55 days post MPTP treatment.

[4] = tested on: dopaminergic neurons in the ventral tegmental area (VTA); test: Neuron counting (tyrosine hydroxylase-labeled cells) in ventral tegmental area of MPTP-treated mice; conditions: 3 mg/kg/day s.c. mini-pump 14 days; MPTP alone 28% fewer neurons than Control
Text: as §4, §1
as §2, with “mg/kg/day)). […]” for “mg/kg/day)).”

Compound | Open field activity compared with the vehicle group (MPTP-treated mice [1]; 10 days post MPTP) | Impairment of forelimb extensions (tail hang test) (MPTP-treated mice [2]) | Neuron loss in the substantia nigra versus MPTP-treated animals [3] | Average Neuron Count (statistical error) [3] | Reduction of MPTP-induced neuron loss in the Ventral Tegmental area [4] | Number of unsupported rears compared with vehicle (MPTP-treated mice [1]; 3 mg/kg/day s.c. mini-pump, 50-60 days post MPTP treatment) | Open field activity compared with the vehicle group (MPTP-treated mice [1]; 10 and 30 days post MPTP (40 mg/kg s.c.))
CCC1=CC(Cc2c[nH]cn2)CCC1 (stereo not drawn) [AGN 196923] | significant reduces the amount of activity | no such trend | significantly less neuron loss | 35 (±2) | about 10% | – | –
OCCNC(=S)NCc1cccc(Cl)c1F [AGN 197075] | – | significantly reduces this impairment | significantly less neuron loss | 37 (±2) | about 10% | significantly more unsupported rears | –
Brc1c(NC2=NCCN2)ccc2nccnc12 [brimonidine, reference compound] | – | no such trend | significantly less neuron loss | 32 (±1) | about 10% | – | no alteration in this increase of activity
